Measured values reported in patent US20240269139A1, “COMPOUNDS FOR TARGETED PROTEIN DEGRADATION OF KINASES” (DANA-FARBER CANCER INSTITUTE, INC., priority 2020, published 2024).
“And” between values parts separate entries of the source, which are not always exact repeats. Equal entries are not always repeated. Where two headings read alike, the source gives them in different places.

Experiments:
Format in all cases: cell-based
[1] = test system: protein kinases (human kinome); conditions: for logFC of SRC: Accession P12931-2; for logFC LCK: accession P06239-3; for Total no. kinase hits: number of degraded kinases per library compound; for logFC of FER: FER P16591-3; for logFC PTK2B: accession Q14289-2
[2] = biological target: protein kinases (human kinome) (Homo sapiens, UniProt P51451); conditions: for logFC of BLK: BLK P51451, experiment wp045; for logFC of BLK (P51451): down; for logFC BLK: BLK (P51451), direction down
[3] = biological target: protein kinases (human kinome) (Homo sapiens, UniProt P53671); conditions: for logFC LIMK2: LIMK2 (P53671), down; for logFC of LIMK2: LIMK2 P53671
[4] = experiment wp045, direction of change down
[5] = SRC (P12931-2) protein abundance, degrader vs DMSO, down
[6] = Experiment wp107, direction down
[7] = Experiment wp117, direction down
[8] = experiment wp103, direction of change down
[9] = experiment wp107, direction of change down
[10] = experiment wp117, direction of change down

protein kinases (human kinome) (Homo sapiens, UniProt P53671), sequence (P53671 whole entry): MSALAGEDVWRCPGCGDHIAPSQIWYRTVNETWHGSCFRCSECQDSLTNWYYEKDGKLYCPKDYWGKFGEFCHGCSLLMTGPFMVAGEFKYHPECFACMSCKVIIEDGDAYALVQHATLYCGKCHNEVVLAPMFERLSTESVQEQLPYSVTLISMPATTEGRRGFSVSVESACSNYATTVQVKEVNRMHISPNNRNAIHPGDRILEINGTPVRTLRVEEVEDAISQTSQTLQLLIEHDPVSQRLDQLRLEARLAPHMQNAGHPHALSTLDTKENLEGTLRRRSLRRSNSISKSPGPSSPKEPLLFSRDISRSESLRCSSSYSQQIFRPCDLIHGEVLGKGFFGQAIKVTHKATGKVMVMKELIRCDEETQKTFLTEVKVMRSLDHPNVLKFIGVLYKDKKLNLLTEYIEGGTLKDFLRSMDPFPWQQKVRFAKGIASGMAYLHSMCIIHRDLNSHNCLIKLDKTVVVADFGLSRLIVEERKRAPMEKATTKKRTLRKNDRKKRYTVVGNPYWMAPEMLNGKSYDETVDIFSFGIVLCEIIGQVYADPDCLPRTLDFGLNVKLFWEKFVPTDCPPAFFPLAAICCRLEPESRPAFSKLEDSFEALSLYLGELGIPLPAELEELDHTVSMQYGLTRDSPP
protein kinases (human kinome) (Homo sapiens, UniProt P51451), sequence (P51451 whole entry): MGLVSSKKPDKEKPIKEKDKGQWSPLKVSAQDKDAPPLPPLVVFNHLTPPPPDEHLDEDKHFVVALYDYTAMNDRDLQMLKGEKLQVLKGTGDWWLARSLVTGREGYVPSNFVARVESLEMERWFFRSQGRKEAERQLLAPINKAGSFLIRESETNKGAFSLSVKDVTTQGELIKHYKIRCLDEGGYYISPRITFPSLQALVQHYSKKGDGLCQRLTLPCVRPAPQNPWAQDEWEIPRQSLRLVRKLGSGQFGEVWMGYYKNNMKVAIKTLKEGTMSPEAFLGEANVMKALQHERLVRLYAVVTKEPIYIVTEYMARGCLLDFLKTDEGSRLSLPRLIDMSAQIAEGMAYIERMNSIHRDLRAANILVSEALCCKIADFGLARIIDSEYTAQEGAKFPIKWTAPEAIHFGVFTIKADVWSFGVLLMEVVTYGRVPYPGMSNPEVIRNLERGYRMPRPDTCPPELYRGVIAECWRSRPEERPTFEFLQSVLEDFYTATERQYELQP

## Cc1ccc(NC(=O)c2cccc(C(F)(F)F)c2)cc1N1Cc2cnc(Nc3ccc(N4CCN(CCCCCCOc5cccc6c5C(=O)N(C5CCC(=O)NC5=O)C6=O)CC4)nc3)nc2N(C)C1=O (stereo not shown) [DB0663]
[1]; experiment wp045
  logFC of SRC: −0.4247
  logFC MAP3K20 (Q9NYL2-2): −0.8012
[1]; Experiment wp046
  logFC MAP3K20 (Q9NYL2-2): −0.8012
[1]; [4]
  logFC LCK: −0.5823
  logFC LCK (P06239-3): −0.5823
[1]; [5]
  logFC: −0.4247
[1]; TNK2 (Q07912-3), experiment wp045, direction down
  logFC: −0.9271
[1]; TNK2 Q07912-3, experiment wp045
  logFC TNK2: −0.9271
[1]; as stated for the structure in the embodiments
  kinases the bifunctional compound degrades: CDK4, BLK, FER, LIMK2, GAK, CSK, SIK2, LCK, PTK2B, SRC, ABL2, MAPK14,a MAPK9, MAP4K2, MKNK2, MAP3K20, and TNK2
[1]; kinases significantly downregulated vs DMSO (fold change cutoff −1.25, P-value<0.01), ≤8 h, 0.1-5 μM degrader, 7 cell lines
  Kinase hits: CDK4, BLK, FER, LIMK2, GAK, CSK, SIK2, LCK, PTK2B, SRC, ABL2, MAPK14.a MAPK9, MAP4K2, MKNK2, MAP3K20, TNK2
[1]
  Total no. kinase hits: 17
[2]
  logFC of BLK: −1.058
[2]; Experiment wp045
  logFC of BLK (P51451): −1.058
[3]; experiment wp045
  logFC LIMK2: −1.367
  logFC of LIMK2: −1.367

## Cc1ccc(NC(=O)c2cccc(C(F)(F)F)c2)cc1N1Cc2cnc(Nc3ccc(N4CCN(Cc5cn(CCCCCOc6cccc7c6C(=O)N(C6CCC(=O)NC6=O)C7=O)nn5)CC4)nc3)nc2N(C)C1=O (stereo not shown) [DB0646, N-(3-(7-((6-(4-((1-(5-((2-(2,6-Dioxopiperidin-3-yl)-1,3-dioxoisoindolin-4-yl)oxy)pentyl)-1H-1,2,3-triazol-4-yl)methyl)piperazin-1-v)pyridin-3-yl)amino)-1-methyl-2-oxo-1,4-dihydropyrimido[4,5-d]pyrimidin-3(2H)-yl)-4-methylphenyl)-3-(trifluoromethyl)benzamide]
[1]; Accession P06241-2, experiment wp107
  logFC FYN: −0.3999
[1]; Accession P06241-2, experiment wp160, 4 hr
  logFC FYN: −0.3922
[1]; experiment wp045
  logFC of SRC: −0.4152
  logFC MAP3K20 (Q9NYL2-2): −1.182
[1]; experiment wp105
  logFC of SRC: −0.4412
  logFC of LYN (P07948-2): −0.985
  logFC of MAPK8 (P45983-3): −0.4094
[1]; experiment wp107
  logFC of SRC: −0.4274
  logFC MAP3K20 (Q9NYL2-2): −0.7825
[1]; experiment wp117
  logFC of SRC: −0.3839
  logFC MAP3K20 (Q9NYL2-2): −0.6701
[1]; CDK11B P21127-3, experiment wp103
  logFC: −0.3334
[1]; Experiment wp045
  logFC MAP3K20 (Q9NYL2-2): −1.182
[1]; Experiment wp045, direction down
  logFC MAPK8 (P45983-4): −0.9774
[1]; Experiment wp103
  logFC MAP3K20 (Q9NYL2-2): −0.7004
  logFC of MAPK8 (P45983-2): −0.6109
[1]; Experiment wp103, direction down
  logFC MAPK8 (P45983-2): −0.6109
[1]; Experiment wp105, direction down
  logFC MAPK8 (P45983-3): −0.4094
[1]; Experiment wp107
  logFC MAP3K20 (Q9NYL2-2): −0.7825
  logFC of MAPK8 (P45983-2): −0.723
[1]; [6]
  logFC MAPK8 (P45983-2): −0.723
  logFC TNK2 (Q07912-3): −0.8258
[1]; Experiment wp114
  logFC MAP3K20 (Q9NYL2-2): −0.8962
[1]; Experiment wp117
  logFC MAP3K20 (Q9NYL2-2): −0.6701
  logFC of MAPK8 (P45983-2): −0.7835
[1]; [7]
  logFC MAPK8 (P45983-2): −0.7835
  logFC TNK2 (Q07912-3): −0.9833
[1]; Experiment wp160, 4 hr, direction down
  logFC MAPK8 (P45983-3): −0.611
[1]; Experiment wp160, 8 hr, direction down
  logFC MAPK8 (P45983-3): −1.01
[1]; FER (P16591-3), experiment wp114, direction down
  logFC: −0.5921
[1]; FER (P16591-3), experiment wp172, direction down
  logFC: −1.014
[1]; experiment wp114
  logFC of FER: −0.5921
  logFC MAP3K20 (Q9NYL2-2): −0.8962
[1]; experiment wp172
  logFC of FER: −1.014
[1]; FYN P06241-2, experiment wp107
  logFC FYN: −0.3999
[1]; FYN P06241-2, experiment wp160, 4 hr
  logFC FYN: −0.3922
[1]; GK P32189-3, experiment wp114
  logFC: −0.3632
[1]; [4]
  logFC LCK: −0.5631
  logFC LCK (P06239-3): −0.5631
[1]; [8]
  logFC LCK: −0.4496
  logFC CDK11B (P21127-3): −0.3334
  logFC LCK (P06239-3): −0.4496
[1]; [9]
  logFC LCK: −0.3963
  logFC PTK2B: −2.484
  logFC LCK (P06239-3): −0.3963
[1]; [10]
  logFC LCK: −0.4202
  logFC PTK2B: −2.583
  logFC LCK (P06239-3): −0.4202
[1]; LIMK2 (P53671-3), experiment wp105, direction down
  logFC: −0.7299
[1]; LIMK2 P53671-3, experiment wp105
  logFC of LIMK2: −0.7299
[1]; LYN (P07948-2), experiment wp105
  logFC: −0.985
[1]; MAPK8 P45983-4, experiment wp045
  logFC MAPK8: −0.9774
[1]; MAPK14, accession Q16539-2, experiment wp105, direction of change down
  logFC MAPK14: −0.5822
[1]; MAPK14, accession Q16539-2, experiment wp117, direction of change down
  logFC MAPK14: −0.6436
[1]; MAPK14, accession Q16539-2, experiment wp160, 4 hr, direction of change down
  logFC MAPK14: −0.7051
[1]; MAPK14, accession Q16539-2, experiment wp160, 8 hr, direction of change down
  logFC MAPK14: −1.092
[1]; MAPK14 Q16539-2, experiment wp105
  logFC MAPK14: −0.5822
[1]; MAPK14 Q16539-2, experiment wp117
  logFC MAPK14: −0.6436
[1]; MAPK14 Q16539-2, experiment wp160, 4 hr
  logFC MAPK14: −0.7051
[1]; MAPK14 Q16539-2, experiment wp160, 8 hr
  logFC MAPK14: −1.092
[1]; MOLT-4, KELLY, HEK293T
  targets with significantly different degrader efficacy in the different cell lines with no obvious difference in protein expression: CSK, MAPK9
[1]; PTK2B (Q14289-2), experiment wp107, direction down
  logFC: −2.484
[1]; PTK2B (Q14289-2), experiment wp117, direction down
  logFC: −2.583
[1]; [5]
  logFC: −0.4152 and −0.4412 and −0.4274 and −0.3839
[1]; TAOK2 (Q9UL54-2), experiment wp160, 8 hr
  logFC: −0.5973
[1]; TNK2 (Q07912-3), experiment wp107, direction down
  logFC: −0.8258
[1]; TNK2 (Q07912-3), experiment wp117, direction down
  logFC: −0.9833
[1]; experiment wp103
  logFC MAP3K20 (Q9NYL2-2): −0.7004
[1]; experiment wp160, 4 hr
  logFC of MAPK8 (P45983-3): −0.611
[1]; experiment wp160, 8 hr
  logFC of MAPK8 (P45983-3): −1.01
[1]; experiment wp160, 8 hr, direction of change down
  logFC TAOK2 (Q9UL54-2): −0.5973
[1]
  Total no. kinase hits: 33
[2]; experiment wp103
  logFC BLK: −1.19
[2]; experiment wp107
  logFC BLK: −1.259
[2]; experiment wp117
  logFC BLK: −1.275
[2]; experiment wp152
  logFC BLK: −1.511
[2]; experiment wp160, 2 hr
  logFC BLK: −0.5315
[2]; experiment wp160, 4 hr
  logFC BLK: −1.092
[2]; experiment wp160, 8 hr
  logFC BLK: −1.434
[2]
  logFC of BLK: −1.314
[2]; Experiment wp045
  logFC of BLK (P51451): −1.314
[2]; Experiment wp103
  logFC of BLK (P51451): −1.19
[2]; Experiment wp107
  logFC of BLK (P51451): −1.259
[2]; Experiment wp117
  logFC of BLK (P51451): −1.275
[2]; Experiment wp152
  logFC of BLK (P51451): −1.511
[2]; Experiment wp160, 2 hr
  logFC of BLK (P51451): −0.5315
[2]; Experiment wp160, 4 hr
  logFC of BLK (P51451): −1.092
[2]; Experiment wp160, 8 hr
  logFC of BLK (P51451): −1.434
[3]; experiment wp045
  logFC LIMK2: −1.648
  logFC of LIMK2: −1.648
[3]; experiment wp103
  logFC LIMK2: −1.569
  logFC of LIMK2: −1.569
[3]; experiment wp107
  logFC LIMK2: −1.738
  logFC of LIMK2: −1.738
[3]; experiment wp117
  logFC LIMK2: −1.565
  logFC of LIMK2: −1.565
[3]; experiment wp152
  logFC LIMK2: −1.565
  logFC of LIMK2: −1.565
[3]; experiment wp172
  logFC LIMK2: −1.095
  logFC of LIMK2: −1.095
